Where a name gives a salt, the structure may show the parent alone.
Legend:
rhLOXL2 = rhLOXL2 (Homo sapiens (Human), UniProt Q9Y4K0); assay: LOXL2 inhibition, peroxidase-coupled Amplex Red assay; type: biochemical; conditions: 30 min preincubation at 37° C.
Text: (§1) Method to Determine the Ability of Compounds of the Invention to Inhibit LOX and LOXL1-4 from Different Sources […] S., Trackman P. C. and Kagan H. M., Reaction of aortic lysyl oxidase with beta-aminoproprionitrile. J Biol Chem 1983; 258: 4331-4338). There are five LOX family members; these are LOX, LOXL1, LOXL2, LOXL3 and LOXL4. LOX and LOXL family members can be acquired as recombinant active proteins from commercial sources, or extracted from animal tissues like bovine aorta, tendons, pig skin; or prepared from cell cultures. The inhibitory effects of the compounds of the present invention were tested against the given LOX-LOXL preparation using a high-throughput coupled colorimetric method (Holt A. and Palcic M., A peroxidase-coupled continuous absorbance plate-reader assay for flavin monoamine oxidases, copper-containing amine oxidases and related enzymes. Nat. Protoc. 2006; 1: 2498-2505). The assay was developed using either 384 or 96 well format. […] Test compounds were dissolved in DMSO and tested in a Concentration Response Curve (CRC) with 11 data points, typically in the micromolar or nanomolar range after incubation with the enzyme for 30 min at 37° C. 25 μL of a reaction mixture containing twice the KM concentration of putrescine (Sigma Aldrich, e.g. 20 mM for LOX, or 10 mM for LOXL2 and LOXL3), 120 μM Amplex Red (Sigma Aldrich) and 1.5 U/mL horseradish peroxidase (Sigma Aldrich) prepared in 1.2 M urea, 50 mM sodium borate buffer (pH 8.2) were then added to the corresponding wells. The above volumes were doubled in the case of 96 well plates. The fluorescence (RFU) was read every 2.5 m n for 30 m u […], excitation 565 nm and emission 590 nm (Optima; BMG labtech). The slope of the kinetics for each well was calculated using MARS data analysis software (BMG labtech) and this value was used to deduce the IC50 value (Dotmatics).

Bovine LOX = Bovine LOX (Bos taurus (Bovine), UniProt P33072); assay: LOX inhibition, peroxidase-coupled Amplex Red assay; type: biochemical; conditions: 30 min preincubation at 37° C.
Sequence of Bovine LOX (P33072 170-418): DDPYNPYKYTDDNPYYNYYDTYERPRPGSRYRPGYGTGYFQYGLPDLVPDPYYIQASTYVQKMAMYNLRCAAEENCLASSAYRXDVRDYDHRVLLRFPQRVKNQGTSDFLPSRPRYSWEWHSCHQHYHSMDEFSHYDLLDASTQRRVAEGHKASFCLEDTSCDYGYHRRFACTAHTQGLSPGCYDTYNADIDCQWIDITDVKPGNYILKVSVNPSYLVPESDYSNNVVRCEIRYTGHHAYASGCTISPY
Text: as §1

Sequence of rhLOXL2 (Q9Y4K0 26-774): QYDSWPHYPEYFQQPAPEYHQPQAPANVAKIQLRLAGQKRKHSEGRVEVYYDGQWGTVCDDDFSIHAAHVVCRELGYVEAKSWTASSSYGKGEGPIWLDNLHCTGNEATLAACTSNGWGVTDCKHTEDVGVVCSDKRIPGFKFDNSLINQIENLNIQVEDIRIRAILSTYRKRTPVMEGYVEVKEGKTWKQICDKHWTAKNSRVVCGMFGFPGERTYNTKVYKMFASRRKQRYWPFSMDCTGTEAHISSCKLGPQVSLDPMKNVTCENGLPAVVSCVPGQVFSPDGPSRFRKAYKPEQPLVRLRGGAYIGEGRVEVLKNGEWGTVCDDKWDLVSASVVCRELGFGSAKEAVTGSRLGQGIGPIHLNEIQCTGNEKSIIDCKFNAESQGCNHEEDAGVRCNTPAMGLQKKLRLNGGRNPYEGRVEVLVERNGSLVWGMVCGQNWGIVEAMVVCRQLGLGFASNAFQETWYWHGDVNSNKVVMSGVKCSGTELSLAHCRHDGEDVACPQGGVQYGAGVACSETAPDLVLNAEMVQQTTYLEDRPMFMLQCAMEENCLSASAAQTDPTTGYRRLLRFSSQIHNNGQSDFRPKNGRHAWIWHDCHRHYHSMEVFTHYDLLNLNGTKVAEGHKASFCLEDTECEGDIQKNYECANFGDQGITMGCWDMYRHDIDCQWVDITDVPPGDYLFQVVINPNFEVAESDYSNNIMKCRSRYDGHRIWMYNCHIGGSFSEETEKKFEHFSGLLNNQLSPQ

Row | IC50 (rhLOXL2) [nM] | IC50 (Bovine LOX) [nM] | Compound
1 | > 300 | > 300 | NC/C=C(\F)CS(=O)(=O)c1cccc(NCCCc2cn(CCCCC[C@@H]3SC[C@@H]4NC(=O)N[C@@H]43)nn2)c1 [Compound 1-14, hydrochloride]
2 | > 300 | > 300 | NC/C=C(\F)CS(=O)(=O)c1cccc(C(=O)NCCCCCNC(=O)CCCC[C@@H]2SC[C@@H]3NC(=O)N[C@@H]32)c1 [Compound 1-9, 3-(((Z)-4-amino-2-fluorobut-2-en-1-yl)sulfonyl)-N-(5-(5-((3aS,4S,6aR)-2-oxohexahydro-1H-thieno[3,4-d]imidazol-4-yl)pentanamido)pentyl)benzamide hydrochloride]
3 | > 300 | > 300 | NC/C=C(\F)CS(=O)(=O)c1cccc(C(=O)Nc2cc(C(=O)N3CCN(C(=O)CCCC[C@@H]4SC[C@@H]5NC(=O)N[C@@H]54)CC3)cc(C(=O)N3CCN(C(=O)CCCC[C@@H]4SC[C@@H]5NC(=O)N[C@@H]54)CC3)c2)c1 [Compound 1-10, 3-(((Z)-4-amino-2-fluorobut-2-en-1-yl)sulfonyl)-N-(3,5-bis(4-(5-((3aS,4S,6aR)-2-oxohexahydro-1H-thieno[3,4-d]imidazol-4-yl)pentanoyl)piperazine-1-carbonyl)phenyl)benzamide hydrochloride]
4 | < 300 | > 300 | NC/C=C(\F)CS(=O)(=O)c1cccc(OCCCc2cn(CCCCC[C@@H]3SC[C@@H]4NC(=O)N[C@@H]43)nn2)c1 [Compound 1-11, (3aS,4S,6aR)-4-(5-(4-(3-(3-(((Z)-4-amino-2-fluorobut-2-en-1-yl)sulfonyl)phenoxy)propyl)-1H-1,2,3-triazol-1-yl)pentyl)tetrahydro-1H-thieno[3,4-d]imidazol-2(3H)-one hydrochloride]
5 | < 300 | > 300 | Cc1c(-c2cccc(S(=O)(=O)N(C)C)c2)c2cc(C(=O)Nc3ccc4c(c3)n(CCn3cc(CCNC(=O)CCCC[C@@H]5SC[C@@H]6NC(=O)N[C@@H]65)nn3)c(=O)n4CCn3cc(CCNC(=O)CCCC[C@@H]4SC[C@@H]5NC(=O)N[C@@H]54)nn3)ccc2n1C/C(F)=C/CN [Compound 1-4, N,N′-((((5-(1-((Z)-4-amino-2-fluorobut-2-en-1-yl)-3-(3-(N,N-dimethylsulfamoyl)phenyl)-2-methyl-1H-indole-5-carboxamido)-2-oxo-1H-benzo[d]imidazole-1,3(2H)-diyl)bis(ethane-2,1-diyl))bis(1H-1,2,3-triazole-1,4-diyl))bis(ethane-2,1-diyl))bis(5-((3aS,4S,6aR)-2-oxohexahydro-1H-thieno[3,4-d]imidazol-4-yl)pentanamide) hydrochloride]
6 | > 300 | > 300 | NC/C=C(\F)CS(=O)(=O)c1ccc(C(=O)NCc2cn(CCOCCOCCOCCNC(=O)CCCC[C@@H]3SC[C@@H]4NC(=O)N[C@@H]43)nn2)cc1 [Compound 1-7, 4-(((Z)-4-amino-2-fluorobut-2-en-1-yl)sulfonyl)-N-((1-(13-oxo-17-((3aS,4S,6aR)-2-oxohexahydro-1H-thieno[3,4-d]imidazol-4-yl)-3,6,9-trioxa-12-azaheptadecyl)-1H-1,2,3-triazol-4-yl)methyl)benzamide hydrochloride]
7 | < 300 | > 300 | Cc1c(-c2cccc(S(=O)(=O)N(C)C)c2)c2cc(-c3cn(-c4cc(C(=O)NCCCCCNC(=O)CCCC[C@@H]5SC[C@@H]6NC(=O)N[C@@H]65)cc(C(=O)NCCCCCNC(=O)CCCC[C@@H]5SC[C@@H]6NC(=O)N[C@@H]65)c4)nn3)ccc2n1C/C(F)=C/CN [Compound 1-6, 5-(4-(1-((Z)-4-amino-2-fluorobut-2-en-1-yl)-3-(3-(N,N-dimethylsulfamoyl)phenyl)-2-methyl-1H-indol-5-yl)-1H-1,2,3-triazol-1-yl)-N^1,N^3-bis(5-(5-((3aS,4S,6aR)-2-oxohexahydro-1H-thieno[3,4-d]imidazol-4-yl)pentanamido)pentyl)isophthalamide hydrochloride]
8 | < 300 | > 300 | Cc1c(-c2cccc(S(=O)(=O)N(C)C)c2)c2cc(C(=O)Nc3ccc4c(c3)n(Cc3cn(CCOCCOCCOCCNC(=O)CCCC[C@@H]5SC[C@@H]6NC(=O)N[C@@H]65)nn3)c(=O)n4Cc3cn(CCOCCOCCOCCNC(=O)CCCC[C@@H]4SC[C@@H]5NC(=O)N[C@@H]54)nn3)ccc2n1C/C(F)=C/CN [Compound 1-3, hydrochloride]
9 | > 300 | > 300 | NC/C=C(\F)CS(=O)(=O)c1ccccc1C(=O)NCCCCCNC(=O)CCCC[C@@H]1SC[C@@H]2NC(=O)N[C@@H]21 [Compound 1-8, 2-(((Z)-4-amino-2-fluorobut-2-en-1-yl)sulfonyl)-N-(5-(5-((3aS,4S,6aR)-2-oxohexahydro-1H-thieno[3,4-d]imidazol-4-yl)pentanamido)pentyl)benzamide hydrochloride]
10 | < 300 | > 300 | Cc1c(-c2cccc(S(=O)(=O)N(C)C)c2)c2cc(C(=O)Nc3cc(C(=O)NCCCCCNC(=O)CCCC[C@@H]4SC[C@@H]5NC(=O)N[C@@H]54)cc(C(=O)NCCCCCNC(=O)CCCC[C@@H]4SC[C@@H]5NC(=O)N[C@@H]54)c3)ccc2n1C/C(F)=C/CN [Compound 1-5, 5-(1-((Z)-4-amino-2-fluorobut-2-en-1-yl)-3-(3-(N,N-dimethylsulfamoyl)phenyl)-2-methyl-1H-indole-5-carboxamido)-N^1,N^3-bis(5-(5-((3aS,4S,6aR)-2-oxohexahydro-1H-thieno[3,4-d]imidazol-4-yl)pentanamido)pentyl)isophthalamide hydrochloride]
11 | < 300 | > 300 | CN(C)S(=O)(=O)c1ccc(C(OCc2ccc(-n3cc(CNC(=O)CCOCCOCCOCCOCCNC(=O)CCCC[C@@H]4SC[C@@H]5NC(=O)N[C@@H]54)nn3)cc2)c2cn(C/C(F)=C/CN)nn2)cc1 (stereo partly drawn) [Compound 1-16, N-((1-(4-(((1-((Z)-4-amino-2-fluorobut-2-en-1-yl)-1H-1,2,3-triazol-4-yl)(4-(N,N-dimethylsulfamoyl)phenyl)methoxy)methyl)phenyl)-1H-1,2,3-triazol-4-yl)methyl)-1-(5-((3aS,4S,6aR)-2-oxohexahydro-1H-thieno[3,4-d]imidazol-4-yl)pentanamido)-3,6,9,12-tetraoxapentadecan-15-amide hydrochloride]
12 | < 300 | > 300 | Cc1c(-c2cccc(S(=O)(=O)N(C)C)c2)c2cc(C(=O)NCCCCCNC(=O)CCCC[C@@H]3SC[C@@H]4NC(=O)N[C@@H]43)ccc2n1C/C(F)=C/CN [Compound 1-2, 1-((Z)-4-amino-2-fluorobut-2-en-1-yl)-3-(3-(N,N-dimethylsulfamoyl)phenyl)-2-methyl-N-(5-(5-((3aS,4S,6aR)-2-oxohexahydro-1H-thieno[3,4-d]imidazol-4-yl)pentanamido)pentyl)-1H-indole-5-carboxamide]
13 | > 300 | > 300 | NC/C=C(\F)CS(=O)(=O)c1cccc(N(CCCc2cn(CCCCC[C@@H]3SC[C@@H]4NC(=O)N[C@@H]43)nn2)CCCc2cn(CCCCC[C@@H]3SC[C@@H]4NC(=O)N[C@@H]43)nn2)c1 [Compound 1-13, (3aS,3a'S,4S,4'S,6aR,6a′R)-4,4′-(((((3-(((Z)-4-amino-2-fluorobut-2-en-1-yl)sulfonyl)phenyl)azanediyl)bis(propane-3,1-diyl))bis(1H-1,2,3-triazole-4,1-diyl))bis(pentane-5,1-diyl))bis(tetrahydro-1H-thieno[3,4-d]imidazol-2(3H)-one) hydrochloride]
